Consider twelve substances from article PMC7617889, “Molecular basis for pH sensing in the KDEL trafficking receptor” (Structure (London, England : 1993), 2024).

Series [1] deals with HeLa S3 cells (endogenous KDEL receptor). Put plainly: ER secretion assay (western blot of cells and media). The class given is cell-based, human. To be noted: for secretion of endogenous luminal ER chaperones (BiP, PDI, ERP44) caused by the exogenous signal variant: western blot, n = 3, compared with signals having leucine at −1, result in words; for ER retention of the mScarlet reporter (secretion to media): 24 hr expression, western blot of cell extracts and medium, n = 3, result in words. An excerpt: To further explore if disturbing the water will disrupt the binding, the terminal leucine at the −1 position in the HDEL ligand was alchemically changed to phenylalanine or alanine (Figures 3E and 3F). Phenylalanine also stabilized the two waters in the binding pocket, resulting in a high unbinding free energy. Due to its small size, alanine, however, was unable to stabilize the water, resulting in lower binding free energy. To validate these calculations, we tested the impact of signal variants at the −1 position on both retrieval of the endogenous KDELR from the Golgi to the ER and ER retention of a reporter protein carrying the signal variant in a cellular assay. To measure the role of the −1 position on retrieval of the endogenous KDELR to the ER, cells were transfected with mScarlet-reporters carrying −1 alanine (H/KDEA) or phenylalanine (H/KDEF) variants of either the HDEL or KDEL retrieval signals (Figure 4A). […] Finally, the effect of −1 variant signals on KDELR retrieval of endogenous ER chaperones was also tested. […] This effect was reduced for HDEF or KDEF signals and lost entirely for HDEA or KDEA signals (Figures 4B and 4D).
Figure 4 The terminal amino acid modulates recognition of the ERS by the KDEL receptor (A) Endogenous KDEL receptor redistribution was measured in COS-7 cells in the absence (-ligand) or presence of H/KDEL/F/A (mScarlet-xDEx^sec). TGN46 was used as a Golgi marker. The scale bar is 10 μm. The mean differences for H/KDEL/F/A comparisons against the shared no-ligand control are shown as Cummings estimation plots. The individual data points for the fraction of KDEL receptor fluorescence in the Golgi are plotted on the upper axes. On the lower axes, mean differences are plotted as bootstrap sampling distributions. Each mean difference is depicted as a dot. Each 95% confidence interval is indicated by the ends of the vertical error bars. (B) Cells and media collected from HeLa S3 cells expressing the xDEx variants (mScarlet-K/HDEx^sec) indicated in the figure were western blotted for resident ER chaperons and KDEL receptor.*unspecific bands (C) K/HDEx secretion to media bar graph showing mean ± SEM (n = 3). (D) Bar graph of endogenous ER chaperones secreted after challenged with different retrieval signals as measured by western blot showing mean ± SEM (n = 3).
ER chaperone secretion assays were performed as described in Gerondopoulos et al.[11] Briefly HeLa S3 cells were transfected with mScarlet-ligand (+xDEL ligand) or pcDNA3.1 (− ligand), and allowed to express the respective proteins for 24 hr. The media were TCA precipitated and both cell and media were resuspended and boiled in SDS-PAGE sample buffer. All samples were analysed by Western blotting and signals on films were measured by densitometry in FIJI.[33] Data were plotted as bar graphs in GraphPad Prism.
A general note: A western blot detects proteins with antibodies after separation by electrophoresis.

Series [2] relates to human KDELR1-GFP D9N in COS-7 cells. Kind of series: Retrieval assay (KDEL receptor redistribution Golgi to ER). Particulars: KDELR-GFP D9N vs WT, mScarlet ligand. It counts as cell-based. An excerpt: Figure 6 Effect of the water on proton transfer between Asp9 and His12 (A) In the bound state, a proton could be transferred from the histidine (His12/H12) to the aspartate (Asp9/D9) through the crystallographic water. A similar proton transfer can also be made in the apo state. (B) In the apo and bound state, the free energy barrier for the proton transfer (the center of excess charge) from the histidine to aspartate is similar. A larger energy barrier is observed for the proton transfer from aspartate back to the histidine in the bound state. (C) WT, D9A and D9N-mutant KDEL receptors redistribution in COS-7 cells in the absence (-ligand) or presence of K/R/HDEL (mScarlet-xDEL^sec) ligand. TGN46 was used as a Golgi marker. […] (D) The fraction of wild-type and H12A, D9A, and D9N-mutant KDEL receptors localized to the Golgi was measured before (no ligand) and after challenge with different retrieval signals (K/R/HDEL) and is shown as Cummings estimation plots. […]
Retrieval assays were performed as described in Gerondopoulos et al.[11] […] The signal for the KDEL receptor (integrated pixel intensity) was measured in individual cells using FIJI[33] for the Golgi region defined by the TGN46 Golgi marker and for the entire cell in the presence (+) and absence (-) of ligand. The fraction of KDEL receptor in the Golgi apparatus was calculated by dividing the Golgi signal by the total cell signal. […]

For another series, the target named is chicken KDELR. Particulars: cited from earlier work.
The target in a further series is TAEKDEL peptide. To be noted: cited from earlier work.
The next series concerns the target TAEHDEL peptide. To be noted: cited from earlier work.
Series [3] has as its target T1, Gallus gallus (Gg) KDELR2 (Gallus gallus, UniProt Q5ZKX9).
T1 construct: GFP-His fusion (C); made in house; host or cells: Saccharomyces cerevisiae strain BY5460
T1 sequence (Q5ZKX9 1-212): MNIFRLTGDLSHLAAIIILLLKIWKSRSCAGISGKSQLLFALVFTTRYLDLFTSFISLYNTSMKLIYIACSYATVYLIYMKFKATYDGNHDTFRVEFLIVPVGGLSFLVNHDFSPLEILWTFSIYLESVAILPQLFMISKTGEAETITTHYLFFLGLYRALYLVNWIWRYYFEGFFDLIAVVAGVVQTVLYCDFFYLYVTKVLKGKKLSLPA
Kind of series: Peptide binding assay, competition of 3H-labelled peptide (filter binding, scintillation counting). To be noted: competition of 3H-labelled peptide at 20 nM, 20 mM MES pH 5.4, 40 mM sodium chloride, 0.01% DDM 0.0005% CHS, 20°C, 10 min, mean, n = 3, read-out: affinity (mean IC50, Figure S3). Here is the method: Binding assays were performed as detailed in Bräuer, P. et al.[19] WT or mutant protein (5 μL) in 20 mM MES pH 5.4, 40 mM Sodium Chloride, 0.01% DDM 0.0005% CHS was incubated with 5 μL of 3H-TAEHDEL (Cambridge Research Biochemicals, UK) at 20 nM at 20°C for 10 min. Using a vacuum manifold, the reaction was then filtered through a 0.22 μm mixed cellulose ester filters (Millipore, USA). Filters were washed with 2 x 0.5 mL cold buffer. The amount of peptide remaining bound was measured using scintillation counting in Ultima Gold (Perkin Elmer). Experiments were performed at least three times, independently, to generate an overall mean and standard deviation (s.d).
Figure S3. Affinity of different cargo signals, related to Figure 5. Mean IC50 values calculated for the TAEHDEF and TAEHDEL peptides competing […] peptide. Error bars are standard deviation of the mean (n = 3).
(1 picture or pasted object on this page, not shown here)

Series [4] concerns the target T2, human KDELR1-GFP D9N (human) (UniProt P24390).
T2 sequence: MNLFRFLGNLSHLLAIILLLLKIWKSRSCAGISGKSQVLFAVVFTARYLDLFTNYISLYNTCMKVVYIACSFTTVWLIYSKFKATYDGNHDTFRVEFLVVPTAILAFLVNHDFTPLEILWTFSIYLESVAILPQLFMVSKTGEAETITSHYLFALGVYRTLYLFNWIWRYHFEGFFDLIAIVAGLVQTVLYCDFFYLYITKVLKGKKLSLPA

Where no end group is shown, it is not given here.

On to “HDEA [HDEL ligand with terminal leucine changed to alanine (simulation)]”, for which the “secretion of endogenous luminal ER chaperones (BiP, PDI, ERP44) caused by the exogenous signal variant” value (“secretion … by the exogenous signal variant” below) in series [1] is listed as “lost entirely”. Turning to “HDEF [HDEL ligand with terminal leucine changed to phenylalanine (simulation)]”, in series [1], the “ER retention of the mScarlet reporter (secretion to media)” value is listed as “retained more efficiently than the alanine variants but less efficiently than when leucine is present” and the “secretion … by the exogenous signal variant” value is listed as “reduced”.

As a reminder, the Kd is the concentration at which binding is half-saturated. As for HDEL, the “retrieval of cargo by the Asp9Asn receptor variant relative to WT” value in series [2] is given as ~ 80 % WT levels. Also, the dissociation constant Kd on chicken KDELR is 240 nM.

“KDEA [KDEL ligand with alanine at the −1 position (simulation)]”: in series [1], the “secretion … by the exogenous signal variant” value was “lost entirely”. For the substance “KDEF^sec: hGHss-mScarlet-H. sapiens BiP639-654 L654F secreted reporter (GPPPTGEEDTAEKDEF; not fully specified (N-terminus))”, in series [1], the “ER retention of the mScarlet reporter (secretion to media)” value is “retained more efficiently than the alanine variants but less efficiently than when leucine is present” and the “secretion … by the exogenous signal variant” value is listed as “reduced”.

For KDEL receptor (from UniProt Q5ZKX9), the dissociation constant (Kd) with TAEKDEL peptide is 1940 nM; with TAEHDEL peptide it was 240 nM. On to Lys-Asp-Glu-Leu [KDEL], for which the Kd on chicken KDELR is 1940 nM. Take “RDEL [RDEL variant of the retrieval signal peptide]”: on chicken KDELR, the Kd was 2710 nM. Usually IC50 stands for the concentration at which inhibition is half-maximal. In the case of TAEHDEF [TAEHDEF], the IC50 in series [3] stood at 23000 nM. With TAEHDEL [TAEHDEL, reference compound], the half-inhibitory concentration (IC50) in series [3] stood at 18000 nM. Consider “TAEKDEL [ER-retrieval signal peptide with canonical KDEL, Cambridge peptides]”, for which the Kd at chicken KDELR was 1940 nM. Substance “hGHss-mScarlet-H. sapiens BiP639-654 K651H (HDEL^SEC) (from UniProt P11021 639-654)” gave a ligand-induced redistribution of KDELR1-GFP from the Golgi in COS-7 cells (cell retrieval assay), HDEL ligand in series [4] of 80 % WT levels.
